Key:
C. formosanus = test: ARS bait matrix bioassay with NHA sodium salt, protocol of Example 1 (Example 2); format: in vivo, Coptotermes formosanus; settings: concentrations greater than 500 and up to 1500 ppm; also effective
Description: For bait matrices with a final concentrations of NHA sodium salt of either 250 ppm or 500 ppm, the following procedure was used. A total of 25 mg or 50 mg, respectively of the NHA sodium salt was weighed using a Mettler balance. The NHA sodium salt complex was placed into a 50 ml sterile screw cap conical tube (#62.547.004; Sarstedt, Newton, N.C.) and dissolved with 40 ml nutritive solution described in Example 2 of U.S. patent application Ser. No. 09/294,499 filed Apr. 20, 1999, hereby incorporated by reference. Under a laminar flow hood, this product was mixed with 27 ml more of sterile nutritional supplement in a 250 ml sterile glass bottle (prepared as reported by M. G. Rojas and J. A. Morales-Ramos, April 2001, “Bait matrix for delivery of chitin synthesis inhibitors to the Formosan subterranean termite [Isoptera: Rhinotermitidae],” J. Econ. Entomol. 94(2) :506-510) hereby incorporated by reference. The bottle was tightly closed with a screw cap and manually shaken for 2 minutes. The mixture was added to 33 g of sterile cellulose as reported by Rojas and Morales-Ramos (2001) supra. The mixture was manually homogenized using a stainless steel spatula. To encase the bait matrix, tubes made of fibrous casing material (#124B; L.E.M. Products, Inc., Miamitown, Ohio) were cut into 150 mm long portions as reported by Rojas and Morales-Ramos (2001) supra. Fifty grams of bait matrix containing NHA sodium salt was compacted into one end of the inlet tube, and the open end and of the inlet tube was closed with a rubber band. The bait casing was placed inside of the foraging box adjacent to a 10 g piece of pine wood, taking care that it was partially covered with sand. Control bait matrix was prepared minus NHA, and presented in the same way as the treatment matrix to Formosan termites taken from three different colonies, with two boxes per locality totaling six boxes of 2500 termites per treatment. (Rojas and Morales-Ramos [2001] supra). All the experimental boxes were maintained under dark conditions at 27±1° C., and 90±2% relative humidity. Observations were done every 72 hours until all the termites died. The time to reach 100% mortality was measured and recorded. Mean comparisons among treatments and control were conducted.
N-hydroxynaphthyalimide (NHA) which is commercially available as pure chemical, is dissolved in distilled water using a sterile container; At concentrations of 500 ppm, NHA is effective as bait active ingredient taking a mean time to kill C. formosanus in 2½ months in lab conditions. […]

Reticulitermes spp. = test: Field evaluation of bait matrix-NHA in underground Exterra bait stations, Past Christian, Mississippi; format: in vivo, Reticulitermes flavipes
Description: Underground Exterra bait stations (Ensystex, Fayetteville, N.C.) were placed according to manufacturer directions around 20 houses in a heavily Reticulitermes spp. infested neighborhood surrounded by mainly pine forest in Past Christian, Miss. The stations were placed, approximately 20 feet apart and 5 feet away from the outside wall of the house. Monthly inspections were conducted to determine termite activity. Once termites were found in the station, 150 g of the ARS bait matrix (see Example 2) containing 250 ppm NHA was placed in the station for the first year of the experiment. The dose was increased in the second year to 500 ppm because of the constant movement of termites from the forest area to the stations. The bait matrix-NHA was prepared as above and exposed to the termites contained in the Exterra bait station, consecutively monthly inspections were conducted and bait matrix-NHA was added as required. Data on bait consumption, temperature of the soil and time to kill the colony was recorded. Reticulitermes flavipes were very abundant in the study site. The distribution of the infestation was in patches. For the typical infested house, termites were found in 3 of 6 stations. For this type of environmental setting, 600 g of bait matrix which is equivalent to 240 mg of NHA was required to kill the colony. It took about 9 months (from September-May) for the bait matrix to show its effectiveness which was evaluated by the presence of dead termites on the surface of the bait matrix container and interceptors.

[1] = date 01/29 (17th of 18, second winter)
[2] = date 02/26 (18th of 18, second winter)
[3] = typical infested house, termites in 3 of 6 stations

O=C1c2cccc3cccc(c23)C(=O)N1O [NHA, N-hydroxynaphthalimide]
mean killing times versus 500 ppm (C. formosanus): not significantly different | time for the bait matrix to show its effectiveness (dead termites on bait container and interceptors) (Reticulitermes spp.; September-May): about 9 months | Active Stations Number (Reticulitermes spp.; date 01/29 (5th of 18)): 6 | Active Stations Percentage (Reticulitermes spp.; date 01/29 (5th of 18)): 24.0% | Bait (Cum. weight in g) Consumed (Reticulitermes spp.; date 01/29 (5th of 18)): 1,500 g | Active Stations Number (Reticulitermes spp.; [1]): 11 | Active Stations Percentage (Reticulitermes spp.; [1]): 24.4% | Bait (Cum. weight in g) Consumed (Reticulitermes spp.; [1]): 11,850 g | Active Stations Number (Reticulitermes spp.; date 02/26 (6th of 18)): 12 | Active Stations Percentage (Reticulitermes spp.; date 02/26 (6th of 18)): 50.0% | Bait (Cum. weight in g) Consumed (Reticulitermes spp.; date 02/26 (6th of 18)): 1,500 g | Active Stations Number (Reticulitermes spp.; [2]): 15 | Active Stations Percentage (Reticulitermes spp.; [2]): 33.3% | Bait (Cum. weight in g) Consumed (Reticulitermes spp.; [2]): 12,600 g | Active Stations Number (Reticulitermes spp.; date 03/27 (7th of 18)): 13 | Active Stations Percentage (Reticulitermes spp.; date 03/27 (7th of 18)): 56.5% | Bait (Cum. weight in g) Consumed (Reticulitermes spp.; date 03/27 (7th of 18)): 1,500 g | Active Stations Number (Reticulitermes spp.; date 05/01 (8th of 18)): 16 | Active Stations Percentage (Reticulitermes spp.; date 05/01 (8th of 18)): 55.2% | Bait (Cum. weight in g) Consumed (Reticulitermes spp.; date 05/01 (8th of 18)): 3,150 g | Active Stations Number (Reticulitermes spp.; date 05/29 (9th of 18)): 11 | Active Stations Percentage (Reticulitermes spp.; date 05/29 (9th of 18)): 36.7% | Bait (Cum. weight in g) Consumed (Reticulitermes spp.; date 05/29 (9th of 18)): 3,750 g | Active Stations Number (Reticulitermes spp.; date 06/26 (10th of 18)): 16 | Active Stations Percentage (Reticulitermes spp.; date 06/26 (10th of 18)): 50.0% | Bait (Cum. weight in g) Consumed (Reticulitermes spp.; date 06/26 (10th of 18)): 4,800 g | Active Stations Number (Reticulitermes spp.; date 07/31 (11th of 18)): 12 | Active Stations Percentage (Reticulitermes spp.; date 07/31 (11th of 18)): 33.3% | Bait (Cum. weight in g) Consumed (Reticulitermes spp.; date 07/31 (11th of 18)): 6,000 g | Active Stations Number (Reticulitermes spp.; date 08/28 (12th of 18)): 17 | Active Stations Percentage (Reticulitermes spp.; date 08/28 (12th of 18)): 47.2% | Bait (Cum. weight in g) Consumed (Reticulitermes spp.; date 08/28 (12th of 18)): 7,200 g | Active Stations Number (Reticulitermes spp.; date 09/25 (13th of 18)): 21 | Active Stations Percentage (Reticulitermes spp.; date 09/25 (13th of 18)): 52.5% | Bait (Cum. weight in g) Consumed (Reticulitermes spp.; date 09/25 (13th of 18)): 7,950 g | Active Stations Number (Reticulitermes spp.; date 09/26 (1st of 18), NHA 250 ppm first year, 500 ppm second year): 22 | Bait (Cum. weight in g) Consumed (Reticulitermes spp.; date 09/26 (1st of 18), from fully consumed bait bags): 0.0 g | Active Stations Percentage (Reticulitermes spp.; date 09/26 (1st of 18), of cumulative stations ever active): 95.7% | Active Stations Number (Reticulitermes spp.; date 10/27 (2nd of 18)): 10 | Active Stations Percentage (Reticulitermes spp.; date 10/27 (2nd of 18)): 43.5% | Bait (Cum. weight in g) Consumed (Reticulitermes spp.; date 10/27 (2nd of 18)): 600 g | Active Stations Number (Reticulitermes spp.; date 11/02 (14th of 18)): 18 | Active Stations Percentage (Reticulitermes spp.; date 11/02 (14th of 18)): 42.9% | Bait (Cum. weight in g) Consumed (Reticulitermes spp.; date 11/02 (14th of 18)): 10,800 g | Active Stations Number (Reticulitermes spp.; date 11/20 (3rd of 18)): 10 | Active Stations Percentage (Reticulitermes spp.; date 11/20 (3rd of 18)): 41.7% | Bait (Cum. weight in g) Consumed (Reticulitermes spp.; date 11/20 (3rd of 18)): 1,200 g | Active Stations Number (Reticulitermes spp.; date 11/27 (15th of 18)): 13 | Active Stations Percentage (Reticulitermes spp.; date 11/27 (15th of 18)): 28.9% | Bait (Cum. weight in g) Consumed (Reticulitermes spp.; date 11/27 (15th of 18)): 11,250 g | Active Stations Number (Reticulitermes spp.; date 12/18 (4th of 18)): 8 | Active Stations Percentage (Reticulitermes spp.; date 12/18 (4th of 18)): 33.3% | Bait (Cum. weight in g) Consumed (Reticulitermes spp.; date 12/18 (4th of 18)): 1,500 g | Active Stations Number (Reticulitermes spp.; date 12/29 (16th of 18)): 13 | Active Stations Percentage (Reticulitermes spp.; date 12/29 (16th of 18)): 28.9% | Bait (Cum. weight in g) Consumed (Reticulitermes spp.; date 12/29 (16th of 18)): 11,850 g | NHA required to kill the colony (equivalent of bait matrix) (Reticulitermes spp.; [3]): 240 mg | bait matrix required to kill the colony (Reticulitermes spp.; [3]): 600 g
